Laboratory results: US20060194699A1, “Sprayable non-aqueous, oil-continuous microemulsions and methods of making same” (priority 2003, published 2006)
Like-named read-outs stand apart in the source and are kept apart here.

Experiments:
[1] = cited from earlier work
[2] = cited from earlier work; remark: listed apart in the source
Solubility = type: physicochemical; conditions: 25° C. and pH 4.3

Structure (SMILES): O=C(O)CNCP(=O)(O)O [glyphosate, N-phosphonomethylglycine]
- pKa (first of three printed) [1]: 2.74
- pKa (second of three printed) [1]: 5.63
- pKa (third of three printed) [1]: 10.18
- solubility in water ([2]; 25° C.): 11.6 grams per liter of water
- solubility in common organic solvents ([2]; acetone, alcohol and xylene): insoluble

Structure (SMILES): CC(C)N.O=C(O)CNCP(=O)(O)O [isopropylamine salt of glyphosate]
- solubility in water as equivalent PMG-acid (Solubility; per 1000 g water): 778 grams of equivalent PMG-acid per liter
- weight percent "acid" in the saturated solution (Solubility; saturated aqueous solution): 37.95%
- solubility in water ([2]; 25° C. and pH 4.3): 1050 grams of salt in a liter of water
